The results in this text go back to US20240148821A1, “PHARMACEUTICAL USE OF CYCLIC PEPTIDE COMPOUND” (CHUGAI SEIYAKU KABUSHIKI KAISHA, priority 2021, published 2024).

Numbered stars: 1 amine (or outer) side, 2 acyl side, 3 side chain; on linkers, the order of the positions; unused ones are H or OH. Bridge positions count the residues as written; N and C are the ends. Square brackets hold non-standard residues; d marks the D form. Peptide text beside a SMILES is read from it. * marks the point of attachment. hPhe(3,5-F2-4-CF3) = N[C@@H](CCc1cc(F)c(C(F)(F)F)c(F)c1)C(=O)O; hPhe(3-Cl-4-CF3) = N[C@@H](CCc1ccc(C(F)(F)F)c(Cl)c1)C(=O)O; NMePhe(4-CF3) = CN[C@@H](Cc1ccc(C(F)(F)F)cc1)C(=O)O; NMeAbu(4,4,4-F3) = CN[C@@H](CC(F)(F)F)C(=O)O; NMePhe(4-Cl) = CN[C@@H](Cc1ccc(Cl)cc1)C(=O)O; X131 = O=C([C@H](Cc1cccc(Br)c1F)N[*:1])[*:2]; NMePhe(4-Me) = CN[C@@H](Cc1ccc(C)cc1)C(=O)O; NMeGly(cPent) = CN[C@H](C(=O)O)C1CCCC1; Phe(3-I) = N[C@@H](Cc1cccc(I)c1)C(=O)O; Phe(4-F) = N[C@@H](Cc1ccc(F)cc1)C(=O)O; Pro(4,4-F2) = O=C(O)[C@@H]1CC(F)(F)CN1; NMeY = CN[C@@H](Cc1ccc(O)cc1)C(=O)O; NMeCha = CN[C@@H](CC1CCCCC1)C(=O)O; NMeChg = CN[C@H](C(=O)O)C1CCCCC1; NMeF = CN[C@@H](Cc1ccccc1)C(=O)O; NMeD = CN[C@@H](CC(=O)O)C(=O)O; NMeL = CN[C@@H](CC(C)C)C(=O)O; NMeNva = CCC[C@H](NC)C(=O)O; NMeV = CN[C@H](C(=O)O)C(C)C; d(β3hA) = C[C@@H](N)CC(=O)O; NMeAbu = CC[C@H](NC)C(=O)O; NMeA = CN[C@@H](C)C(=O)O; NMeAib = CNC(C)(C)C(=O)O; Nle = CCCC[C@H](N)C(=O)O; Piperidide = C1CCN(*)CC1; Pra = C#CC[C@H](N)C(=O)O; Pyrrolidide = C1CCN(*)C1; Ac5c = NC1(C(=O)O)CCCC1; Aze = O=C(O)[C@@H]1CCN1; CF3 = FC(F)(F)*; Sar = CNCC(=O)O

The assay deals with Human pancreatic cancer cell line AsPC-1 (G12D mutation Kras). The assay can be described thus: AsPC-1 cell growth inhibition (AsPC-1 CGI). To be noted: read-out: AsPC-1 cell growth inhibition, 50% growth inhibitory concentration (IC50 value); 96 hours, CellTiter-Glo, values classified in ranges. The format is cell-based.
Protocol: Test compounds were serially dilated with dimethyl sulfoxide, and 200 nL was then dispensed to a U-bottom 96-well plate using Labcyte Echo. […] The cell suspension was dispensed to a. plate containing a test compound at 100 μL per well and incubated at 37° C. in a 5% carbon dioxide gas incubator. 96 hours later, 80 μL of CellTiter-Glo (Promega) was added to each well and fluorescence was measured.
In the case of `C#CC[C@@H]1NC(=O)[C@H](Cc2cccc(I)c2)NC(=O)CN(C)C(=O)[C@H](Cc2ccc(OC(F)(F)F)cc2)N(C)C(=O)[C@@H]2CCN2C(=O)CN(C)C(=O)[C@H]([C@@H](C)CC)NC(=O)[C@H](CC(C)C)N(C)C(=O)C[C@@H](C(=O)N2CCCCC2)N(C)C(=O)[C@H](CC(C)C)NC(=O)C(C)(C)N(C)C1=O` [Compound 1298] ([NMeL]I[Sar][Aze][NMeY](CF3)[Sar][Phe(3-I)][Pra][NMeAib]L[NMeD]-Piperidide; lactam N-11), the IC50 is greater than 500 nM.
To `CC[C@H](C)[C@@H]1NC(=O)[C@H](CC(F)(F)F)N(C)C(=O)C[C@@H](C(=O)N2CCCC2)N(C)C(=O)[C@H](C2CCCCC2)N(C)C(=O)C2(CCCC2)NC(=O)[C@@H]2CC(F)(F)CN2C(=O)[C@H](CCc2cc(F)c(C(F)(F)F)c(F)c2)NC(=O)CN(C)C(=O)[C@H](Cc2ccc(C(F)(F)F)cc2)N(C)C(=O)CN(C)C(=O)CN(C)C1=O` [Compound 1303] ([NMeAbu(4,4,4-F3)]I[Sar][Sar][NMePhe(4-CF3)][Sar][hPhe(3,5-F2-4-CF3)][Pro(4,4-F2)][Ac5c][NMeChg][NMeD]-Pyrrolidide; lactam N-11) belongs no more than 20 nM; to `CCCC[C@@H]1NC(=O)[C@H](Cc2cccc(Br)c2F)NC(=O)CN(C)C(=O)[C@H](Cc2ccc(OC)cc2)N(C)C(=O)[C@@H]2CCN2C(=O)[C@H](C)N(C)C(=O)[C@H]([C@@H](C)CC)NC(=O)[C@H](CC)N(C)C(=O)C[C@@H](C(=O)N2CCCCC2)N(C)C(=O)[C@H](CC(C)C)NC(=O)C(C)(C)N(C)C1=O` [Compound 1304] ([NMeAbu]I[NMeA][Aze][NMeY](Me)[Sar][X131][Nle][NMeAib]L[NMeD]-Piperidide; lactam N-11), greater than 500 nM.
To `CCCC[C@@H]1NC(=O)[C@H](Cc2ccc(F)cc2)NC(=O)CN(C)C(=O)[C@H](Cc2ccc(Cl)cc2)N(C)C(=O)CN(C)C(=O)CN(C)C(=O)[C@H]([C@@H](C)CC)NC(=O)[C@H](CC(C)C)N(C)C(=O)C[C@@H](C(=O)N2CCCCC2)N(C)C(=O)[C@H](CC(C)C)NC(=O)C(C)(C)N(C)C1=O` [Compound 1305] ([NMeL]I[Sar][Sar][NMePhe(4-Cl)][Sar][Phe(4-F)][Nle][NMeAib]L[NMeD]-Piperidide; lactam N-11) belongs greater than 500 nM; to `CCC[C@H]1C(=O)N[C@@H]([C@@H](C)CC)C(=O)N(C)CC(=O)N(C)CC(=O)N(C)[C@@H](Cc2ccc(C)cc2)C(=O)N(C)CC(=O)N[C@@H](CCc2cc(F)c(C(F)(F)F)c(F)c2)C(=O)N2CC(F)(F)C[C@H]2C(=O)NC2(CCCC2)C(=O)N(C)[C@@H](C2CCCCC2)C(=O)N(C)[C@H](C(=O)N2CCCC2)CC(=O)N1C` [Compound 1306] ([NMeNva]I[Sar][Sar][NMePhe(4-Me)][Sar][hPhe(3,5-F2-4-CF3)][Pro(4,4-F2)][Ac5c][NMeChg][NMeD]-Pyrrolidide; lactam N-11), no more than 20 nM.
For `CC[C@H](C)[C@@H]1NC(=O)[C@H](CC(C)C)N(C)C(=O)C[C@@H](C)NC(=O)[C@H](C2CCCC2)N(C)C(=O)C2(CCCC2)NC(=O)[C@H](C)NC(=O)[C@H](CCc2ccc(C(F)(F)F)c(Cl)c2)NC(=O)CN(C)C(=O)[C@H](Cc2ccc(C)cc2)N(C)C(=O)[C@@H]2CCN2C(=O)[C@H](C)N(C)C1=O` [Compound 1307] (cyclo(A[Ac5c][NMeGly(cPent)][d(β3hA)][NMeL]I[NMeA][Aze][NMePhe(4-Me)][Sar][hPhe(3-Cl-4-CF3)])), the IC50 is greater than 500 nM.
The value for `C#CC[C@@H]1NC(=O)[C@H](Cc2cccc(I)c2)NC(=O)CN(C)C(=O)[C@H](Cc2ccccc2)N(C)C(=O)[C@@H]2CCN2C(=O)[C@H](C)N(C)C(=O)[C@H]([C@@H](C)CC)NC(=O)[C@H](CC(C)C)N(C)C(=O)C[C@@H](C(=O)N2CCCCC2)N(C)C(=O)[C@H](CC(C)C)NC(=O)C(C)(C)N(C)C1=O` [Compound 1313] ([NMeL]I[NMeA][Aze][NMeF][Sar][Phe(3-I)][Pra][NMeAib]L[NMeD]-Piperidide; lactam N-11) was greater than 500 nM; that for `CC[C@H](C)[C@@H]1NC(=O)[C@H](CC(C)C)N(C)C(=O)C[C@@H](C(=O)N2CCCCC2)N(C)C(=O)[C@H](C(C)C)N(C)C(=O)C2(CCCC2)NC(=O)[C@@H](C)NC(=O)[C@H](CCc2ccc(C(F)(F)F)c(Cl)c2)NC(=O)CN(C)C(=O)[C@H](CC2CCCCC2)N(C)C(=O)[C@@H]2CCN2C(=O)[C@H](C)N(C)C1=O` [Compound 1314] ([NMeL]I[NMeA][Aze][NMeCha][Sar][hPhe(3-Cl-4-CF3)][dA][Ac5c][NMeV][NMeD]-Piperidide; lactam N-11) was greater than 500 nM.
The value for `CC[C@H](C)[C@@H]1NC(=O)[C@H](CC(C)C)N(C)C(=O)C[C@@H](C(=O)N2CCCCC2)N(C)C(=O)[C@H](C(C)C)N(C)C(=O)C2(CCCC2)NC(=O)[C@H](C)NC(=O)[C@H](CCc2ccc(C(F)(F)F)c(Cl)c2)NC(=O)CN(C)C(=O)[C@H](CC2CCCCC2)N(C)C(=O)[C@@H]2CCN2C(=O)[C@H](C)N(C)C1=O` [Compound 1316] ([NMeL]I[NMeA][Aze][NMeCha][Sar][hPhe(3-Cl-4-CF3)]A[Ac5c][NMeV][NMeD]-Piperidide; lactam N-11) was greater than 500 nM.
